This assay has as its target T1, human FXa (Homo sapiens, UniProt P00742).
T1 construct: FXa solution (human FXa, Haematologic Technologies Inc., Essec Junction, Vt., USA); purchased Haematologic Technologies Inc
Nature of the assay: Measurement of Factor Xa inhibition (chromogenic substrate S-2765 method). Format: biochemical. The note with it: inhibition of Factor Xa activity, screen a), specimen results. The protocol:
a) Measurement of Factor Xa Inhibition
The FXa inhibitor potency was measured with a chromogenic substrate method, in a Plato 3300 robotic microplate processor (Rosys AG, CH-8634 Hombrechtikon, Switzerland), using 96-well, half-volume microtiter plates (Costar, Cambridge, Mass., USA; Cat No 3690). Stock solutions of test substance in DMSO (72 μL), 10 mmol/L, alternatively 1 mmol/L were diluted serially 1:3 (24+48 μL) with DMSO to obtain ten different concentrations, which were analyzed as samples in the assay, together with controls and blanks. As control sample melagatran was analysed. The dilutions of each test substance were analyzed consecutively, row-wise on the microtiter plate, with wash-cycles between substances to avoid cross-contamination. […] The final assay concentrations were: test substance 0.0068-133, respectively 0.00068-13.3 μmol/L, S-2765 0.40 mmol/L (KM=0.25 mmol/L) and FXa […]. The linear absorbance increase at 405 nm during 40 min incubation at 37° C. was used for calculation of percent inhibition for the test samples, as compared to references without inhibitor and/or enzyme. […]

T1 sequence (P00742 235-488 limits assumed): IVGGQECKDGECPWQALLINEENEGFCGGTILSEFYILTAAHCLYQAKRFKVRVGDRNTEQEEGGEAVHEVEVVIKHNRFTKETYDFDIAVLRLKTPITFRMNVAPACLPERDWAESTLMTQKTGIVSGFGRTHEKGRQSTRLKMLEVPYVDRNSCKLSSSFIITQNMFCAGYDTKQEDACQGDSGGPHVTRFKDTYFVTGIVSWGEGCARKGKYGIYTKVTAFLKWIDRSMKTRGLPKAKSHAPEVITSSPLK
T1 sequence (P00742 41-179 partner limits assumed): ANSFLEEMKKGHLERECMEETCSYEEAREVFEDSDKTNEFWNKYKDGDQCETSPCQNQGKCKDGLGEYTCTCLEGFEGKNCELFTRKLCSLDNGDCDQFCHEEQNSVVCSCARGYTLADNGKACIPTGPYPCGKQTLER

The molecule `Cn1nc(N2CCC(C(=O)N3CCN(S(=O)(=O)c4ccc5c(Cl)c[nH]c5c4)C(O)C3)CC2)ccc1=O` (centres unmarked) [Example 3, 6-{4-[4-(3-Chloro-1H-indole-6-sulfonyl)-3-hydroxy-piperazine-1-carbonyl]-piperidin-1-yl}-2-methyl-2H-pyridazin-3-one] came in with an IC50 of 4.8 nM. As for `Cc1cc(N2CCC(C(=O)N3CCN(S(=O)(=O)c4ccc5c(Cl)c[nH]c5c4)CC3)CC2)c[nH]c1=O` [Example 6, 4-[4-(3-Chloro-1H-indole-6-sulfonyl)-piperazine-1-carbonyl]-5′-methyl-3,4,5,6-tetrahydro-2H,1′H-[1,3′]bipyridinyl-6′-one], the half-inhibitory concentration (IC50) was found to be 98 nM.

(Values after patent publication US20080200431A1, “Heterocyclic Sulfonamide Derivatives as Inhibitors of Factor Xa” (ASTRAZENECA AB, priority 2005, published 2008).)
